# Reference: PubChem BioAssay (NCI)
# Several values for one entry are separate records, joined by “and”; a condition that tells them apart may be missing. Equal values may be shown once.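 Protocol summary: plate cells (96-well), add compound at 5 concentrations, incubate 48 h, interpolate endpoints linearly. At the GI50, growth is halved. Definition used: TGI = concentration required for complete inhibition of growth.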
# Key:
# Experiment in all cases: NCI anticancer screen, dose series, 48 h
# [1] = tested on: A549 NSCLC
# [2] = tested on: CCRF-CEM leukemia
# [3] = tested on: HOP-92 NSCLC
# [4] = tested on: HS 578T breast
# [5] = tested on: LOX IMVI melanoma
# [6] = tested on: NCI-H522 lung
# [7] = tested on: OVCAR-5 ovarian
# [8] = tested on: RXF 393 renal
# [9] = tested on: SK-MEL-5 melanoma
# [10] = tested on: NCI-H226 lung
Compound,GI50 [1],TGI [1],GI50 [2],TGI [2],GI50 [3],TGI [3],GI50 [4],TGI [4],GI50 [5],TGI [5],GI50 [6],TGI [6],GI50 [7],TGI [7],GI50 [8],TGI [8],GI50 [9],TGI [9],GI50 [10],TGI [10]
Cc1cc(Cl)nc(N(CCNc2ccnc3cc(Cl)ccc23)Cc2ccco2)n1,3.1 µM,13.1 µM,1.92 µM,5.04 µM,1.2 µM,3.55 µM,2.27 µM,6.32 µM,1.72 µM,3.2 µM,1.76 µM,3.61 µM,2.72 µM,8.11 µM,1.24 µM,2.89 µM,1.67 µM,3.06 µM,,
COc1ccc(-c2[nH]c3ccc(OC)cc3c2C=C(C#N)C#N)cc1,3.78 µM,> 100 µM,> 100 µM,> 100 µM,> 47.9 µM,> 100 µM,0.924 µM,> 100 µM,> 100 µM,> 100 µM,> 100 µM,> 100 µM,> 100 µM,> 100 µM,5.48 µM,> 100 µM,0.321 µM,> 100 µM,1.45 µM,> 100 µM
CSc1nc2nc(-c3ccccc3)c(C)c-2c2n1C(C)C(=O)N2 (configuration not stated),40.1 µM,> 100 µM,,,40.8 µM,> 100 µM,77.5 µM,> 100 µM,46.7 µM,> 100 µM,38.1 µM,> 100 µM,> 100 µM,> 100 µM,30.6 µM,> 100 µM,16.9 µM,35.5 µM,35.7 µM,> 100 µM
CCCCCC/C=C\CCCCCCCCC(=O)c1cccc(OC)c1OC,,> 100 µM,,> 100 µM,,,,> 100 µM,,32.9 µM,,> 100 µM,,> 100 µM,,68.3 µM,,60.9 µM,,> 100 µM
C=C(CN1CCc2[nH]c3ccc(F)cc3c2C1)c1ccc(C(=O)Nc2ccccc2N)cc1,1.17 µM,9.17 µM,2.52 µM,11.9 µM,10.7 µM,36.7 µM,1.07 µM,14.1 µM,,,0.316 µM,1.35 µM,4.32 µM,20.6 µM,0.269 µM,0.949 µM,0.502 µM,1.83 µM,2.47 µM,7.32 µM
S=C1SCN(Cc2ccccc2)CN1Cc1ccco1,23.3 µM,> 100 µM,2.75 µM,18.5 µM,2.4 µM,10.9 µM,19.7 µM,81.5 µM,1.88 µM,10.2 µM,2.59 µM,9.92 µM,9.73 µM,21.9 µM,2 µM,5.53 µM,11.7 µM,26.9 µM,,
CC(=O)O[C@H]1CC2C(C3CC[C@H](C(C)CCC(=O)O)[C@]31C)[C@H](OC(C)=O)C[C@@H]1CC3(CC[C@]21C)OOC1(CCC(C)CC1)OO3 (some centres not stated),,13.4 µM and 3.86 µM,,5.26 µM and 4.09 µM,10.1 µM and 2.34 µM,23.2 µM and 5.95 µM,,13.8 µM and 4.77 µM,,,,12.3 µM and 3.48 µM,10.6 µM and 4.54 µM,22.7 µM and 16 µM,,27.9 µM and 23.9 µM,7.2 µM and 3.39 µM,20.1 µM and 12.5 µM,4.56 µM and 2.11 µM,22.8 µM and 5.34 µM
CC(=O)NC1C(O[C@H]2C[C@H]3[C@@H]4CC=C5C[C@@H](O)CC[C@]5(C)[C@H]4CC[C@]3(C)[C@H]2[C@H](C)C(=O)CCC(C)C)OCC(O)C1O (some centres not stated),5.45 µM,15.3 µM,1.25 µM,4.15 µM,5.1 µM,15.5 µM,0.88 µM,4.09 µM,1.45 µM,5.79 µM,8.72 µM,18.8 µM,6.34 µM,20.1 µM,0.398 µM,1.41 µM,1.85 µM,6.49 µM,,
CC(=O)Oc1c(C(=O)[O-])cc(C(C)C)cc1C(C)C.CC(=O)Oc1c(C(=O)[O-])cc(C(C)C)cc1C(C)C.CC(=O)Oc1c(C(=O)[O-])cc(C(C)C)cc1C(C)C.CC(=O)Oc1c(C(=O)[O-])cc(C(C)C)cc1C(C)C.[Cu+2].[Cu+2],32.4 µM,> 100 µM,20.5 µM,53.7 µM,45.5 µM,> 100 µM,50.5 µM,> 100 µM,2.74 µM,25.8 µM,18.5 µM,33.3 µM,57.2 µM,> 100 µM,,,18 µM,32.9 µM,69.3 µM,> 100 µM
OCCCCC#Cc1ccccc1C#Cc1cccc(C(F)(F)F)c1,15.1 µM,28.6 µM,20.2 µM,38.2 µM,19.9 µM,36.2 µM,29.7 µM,71.3 µM,17.5 µM,31.8 µM,16.6 µM,33.6 µM,17.5 µM,37.2 µM,,,17.8 µM,32.7 µM,18.3 µM,34 µM
CCOC(=O)/C(=C\c1cccc(C)c1)C(C)=O,,> 100 µM,,,,34.8 µM,,51.3 µM,,26.5 µM,,22.8 µM,,31 µM,,24.9 µM,,32 µM,,> 100 µM
COCCN(CCOC)c1nc(-c2ccccc2)nc2ccccc12,30.1 µM,> 100 µM,4.23 µM,> 100 µM,,,38.8 µM,> 100 µM,34.7 µM,> 100 µM,21.6 µM,52.7 µM,21.9 µM,46.3 µM,34.6 µM,> 100 µM,15.8 µM,32.9 µM,23.6 µM,54 µM
CCc1ccc(Nc2cc(C)c3ccc(O)cc3n2)cc1,,,,,2.81 µM,10.8 µM,10.3 µM,31.8 µM,5.03 µM,18.5 µM,,,8.49 µM,21.3 µM,4.08 µM,17.1 µM,4.08 µM,14.3 µM,19.8 µM,54.3 µM
ClCCOCCn1cnc2c(Cl)nc(Cl)nc21,21.6 µM,61.9 µM,11.7 µM,> 100 µM,18.9 µM,45.5 µM,2.51 µM,9.05 µM,5.96 µM,20.1 µM,20 µM,50 µM,15 µM,28.9 µM,,,12.5 µM,25.5 µM,16.3 µM,33.8 µM
